The record followed here is PubChem BioAssay (NCI).

Experiment in all cases: NCI-60 cell line screen, 48 h
Assay [1] has as its system A549 NSCLC.
Assay [2] deals with ACHN renal.
Assay [3] has as its system CAKI-1 renal.
In assay [4] the test system is HOP-92 NSCLC.
The test system of assay [5] is KM12 colon.
Assay [6] has as its system LOX IMVI melanoma.
The subject of assay [7] is RXF 393 renal.
In assay [8] the test system is SNB-75 CNS.
In assay [9] the test system is U251 CNS.
In assay [10] the test system is UACC-257 melanoma.

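Five compound concentrations were applied to cells in 96-well plates for 48 hours; endpoints were derived by simple linear interpolation of the resulting dose-response curve. GI50 = concentration required for 50% inhibition of growth. TGI marks complete inhibition of growth.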 A value given as a limit tells only on which side of the number the result lay.

Regarding `CN(C)c1ccc(Nc2c3ccccc3nc3ccccc23)cc1`, the GI50 in [1] is 0.425 µM; in assay [2] it was 0.532 µM; in [3], 0.486 µM; in [4] it was 0.622 µM; in assay [5], 1.32 µM; in assay [6] it was 0.585 µM. Further, the GI50 in assay [7] is 1.21 µM; in assay [8] it was 0.99 µM; in [9], 1.12 µM; in [10] it was 0.987 µM. For the same molecule, the TGI stood at 1.9 µM in [1]; 2.27 µM in assay [2]; 2.33 µM in assay [3]; 3.84 µM in [4]; 4.54 µM in assay [5]; 2.26 µM in [6]. Moreover, the TGI was 2.61 µM in assay [7], 4.09 µM in assay [8], 2.7 µM in assay [9] and 2.65 µM in [10].
In the case of `[2H]C([2H])([2H])NC(=O)c1nnc(NC(=O)C2CC2)cc1Nc1cccc(-c2ncn(C)n2)c1OC`, the GI50 was 50.1 µM in assay [1]; 5.53 µM in assay [2]; 4.52 µM in [3]; 17.9 µM in [4]; 32.1 µM in assay [5]; 14.5 µM in [6]. The GI50 in assay [7] was 6.04 µM; in assay [8], 15 µM; in [9] it was 59.5 µM; in [10] it was over 100 µM. Besides, the TGI in assay [1] is over 100 µM; in assay [2], over 100 µM; in assay [3], 71.6 µM; in assay [4] it was over 100 µM; in assay [5] it was over 100 µM; in assay [6] it was over 100 µM. The TGI in [7], in assay [8], in assay [9] and in [10] was over 100 µM each time.
In the case of `CCCCC(SC(=S)N1CCCC1)C(=O)Nc1nc(CC(=O)OCC)cs1` (configuration not stated), the GI50 in assay [1] is 31.7 µM; in assay [2], 59.3 µM; in [3], over 100 µM; in assay [4], 36.6 µM; in assay [5], 45.3 µM; in assay [6], 36.1 µM. Also, the GI50 was 41.7 µM in assay [7], over 100 µM in assay [8], 53.8 µM in assay [9] and 47.9 µM in assay [10]. The TGI in assay [1], in assay [2], in [3], in [4], in assay [5] and in assay [6] was over 100 µM each time. Also, the TGI in [7], in assay [8], in assay [9] and in assay [10] was over 100 µM in each case.
Take `[N-]=[N+]=NC(c1cn(C2CC(O)C(CO)O2)c(=O)[nH]c1=O)C(Cl)Br` (configuration not stated): the TGI in assay [1], in [2], in assay [3], in assay [4], in [5] and in [6] was over 100 µM each time. Moreover, the TGI in [7], in assay [8] and in assay [9] was over 100 µM throughout.
For the molecule `O=[N+]([O-])c1cccc(/C=N/NC2=CS(=O)(=O)C=C2)c1`, the TGI in assay [1], in [2], in assay [3], in [4], in assay [5] and in [6] was over 100 µM in each case. The TGI in [7], in [8], in assay [9] and in [10] was over 100 µM each time.
Consider `COc1ccc(/C=C(/c2ccccc2)[N+](=O)[O-])c(OC)c1`, for which the GI50 was 2.32 µM in assay [1]; 1.49 µM in assay [2]; 1.23 µM in assay [3]; 1.26 µM in assay [4]; 1.72 µM in assay [5]; 0.399 µM in [6]. Further, the GI50 in assay [7] was 1.53 µM; in assay [8] it was 0.363 µM; in assay [9] it was 1.48 µM; in [10], 1.55 µM. Besides, the TGI was 6.66 µM in assay [1]; 2.81 µM in assay [2]; 2.64 µM in assay [3]; 2.76 µM in [4]; 3.31 µM in [5]; 1.63 µM in assay [6]. The TGI in assay [7] worked out at 3.03 µM; in [8] it was 1.84 µM; in assay [9], 3.15 µM; in assay [10], 3.38 µM.
`O=[N+]([O-])/C=C/c1c(Cl)cccc1Cl`: the TGI in assay [1] was determined as 22.6 µM; in assay [2] it was 7.49 µM; in assay [3] it was 7.86 µM; in [4] it was 12.2 µM; in assay [5], 5.28 µM; in assay [6], 3.16 µM. The TGI in assay [7] was over 21.8 µM; in assay [8], 32.4 µM; in assay [9], 9.27 µM; in [10] it was 10.2 µM.
With `CO/N=C(\COc1ccc2c(=O)c3ccccc3oc2c1)c1ccccc1`, the GI50 in assay [1] is 35.2 µM; in [2], 24 µM; in assay [3], 1.19 µM; in assay [4], 25.7 µM; in assay [5], 41.4 µM; in assay [6], 35.9 µM. Further, the GI50 in assay [7] is 39 µM; in [8] it was 68.8 µM; in assay [9], 26.6 µM; in assay [10] it was 39.1 µM. The TGI in assay [1] was 99.4 µM; in [2], 52.7 µM; in assay [3], 4.89 µM; in assay [4], 64 µM; in [5] it was over 100 µM; in [6], over 100 µM. For the same molecule, the TGI in assay [7] is over 100 µM; in assay [8], over 100 µM; in [9], 79.2 µM; in assay [10] it was over 100 µM.
Take `COC(=O)c1c2c(c(C)[n+]([O-])c1C)C(=O)C=C(NCc1ccccc1)C2=O`: the GI50 in assay [1] is 1.1 µM; in [3], 1.09 µM; in [4], 2.17 µM; in assay [5], 0.7 µM; in [6], 0.34 µM; in assay [7] it was 1.23 µM. The GI50 in assay [8] is 1.82 µM; in [9], 1.33 µM; in assay [10], 0.261 µM. In addition, the TGI in [1] was 3.46 µM; in [3] it was 3.1 µM; in [4], 4.37 µM; in [5] it was 3.34 µM; in [6] it was 1.53 µM; in assay [7] it was 2.73 µM. Also, the TGI is 3.22 µM in assay [8], 3.02 µM in assay [9] and 0.962 µM in [10].
For the molecule `NC(=N\N=C/c1ccc(O)cc1)/C(N)=N\N=C/c1ccc(O)cc1`, the GI50 is over 25.5 µM in assay [1]; 3.85 µM in assay [2]; 2.06 µM in assay [3]; 60.3 µM in assay [4]; 1.75 µM in assay [5]; 0.435 µM in assay [6]. In addition, the GI50 is 84.7 µM in assay [7], 17.3 µM in [8], 19.5 µM in assay [9] and over 100 µM in assay [10]. Also, the TGI in assay [1], in assay [2], in assay [3], in assay [4], in [5] and in [6] was over 100 µM throughout. The TGI in [7] was over 100 µM; in [8], 43.3 µM; in assay [9], over 100 µM; in [10], over 100 µM.
As for `COC(=O)c1cc(-c2ccccc2)[nH]c1N/N=C/c1c(Cl)cccc1Cl`, the GI50 in assay [1] is 0.501 µM; in assay [2], 0.858 µM; in assay [3], 0.354 µM; in assay [4] it was 0.609 µM; in assay [5], 0.274 µM; in assay [6], 0.602 µM. Further, the GI50 is 0.616 µM in [7], 0.215 µM in assay [8], 0.332 µM in assay [9] and 3.58 µM in assay [10]. Also, the TGI in assay [1] is over 44.1 µM; in [2] it was 26.4 µM; in assay [3], 4.39 µM; in assay [4], 17.5 µM; in assay [5], 1.57 µM; in [6], 17.7 µM. Besides, the TGI in [7] was 52 µM; in assay [8], 2.43 µM; in [9] it was 3.58 µM; in assay [10], 41.3 µM.
On to `O=C1C2C(C(=O)N1c1ccccc1)C1c3ccccc3C2C2C(=O)N(c3ccccc3)C(=O)C21` (configuration not stated), for which the TGI in assay [1], in assay [2], in [3], in assay [4], in assay [5] and in assay [6] was over 100 µM in each case. In addition, the TGI is over 100 µM in [7], 22.6 µM in assay [8], 11.5 µM in [9] and over 100 µM in assay [10].
On to `C=CC(=O)N1CCC(c2ccc(C(N)=O)c(-c3ccc(Oc4ccccc4)cc3)n2)CC1`, for which the GI50 in assay [1] is 28.9 µM; in assay [2], 25.3 µM; in assay [3], 15.8 µM; in [4] it was 10.4 µM; in [5], 39.6 µM; in [6], 26.3 µM. The GI50 is 12.5 µM in assay [7], 17 µM in [8], 32.4 µM in assay [9] and 27.9 µM in assay [10]. Also, the TGI in [1] was over 100 µM; in [2] it was over 100 µM; in [3] it was over 100 µM; in assay [4], 76.6 µM; in assay [5], over 100 µM; in assay [6], over 100 µM. Further, the TGI in [7] is 53.6 µM; in assay [8], over 100 µM; in assay [9] it was over 100 µM; in assay [10] it was over 100 µM.
For the molecule `Nc1ccn(C2CC(F)C(CO)O2)c(=O)n1` (configuration not stated), the GI50 in assay [1], in [2], in assay [3], in assay [4], in assay [5] and in assay [6] was over 100 µM each time. For the same molecule, the GI50 in assay [7], in assay [8], in assay [9] and in assay [10] was over 100 µM throughout. The TGI in [1], in assay [2], in assay [3], in assay [4], in assay [5] and in assay [6] was over 100 µM in each case. The TGI in assay [7], in assay [8], in [9] and in [10] was over 100 µM throughout.
Take `C=CC(=O)N1C/C(=C\c2ccc(Cl)c(Cl)c2)C(=O)/C(=C/c2ccc(Cl)c(Cl)c2)C1`: the TGI is 0.343 µM in assay [2]; 1.17 µM in assay [3]; 2.94 µM in assay [4]; 0.642 µM in [5]; 0.842 µM in assay [6]; 0.299 µM in assay [7]. For the same molecule, the TGI in [8] is 0.676 µM; in assay [9], 0.0724 µM; in assay [10], 1.57 µM.
As for `CCO/C=C1\N=C(c2ccc(Cl)c(Cl)c2)OC1=O`, the TGI in assay [1], in [2], in [3], in assay [4], in assay [5] and in assay [6] was over 100 µM each time. Moreover, the TGI in assay [7], in assay [8] and in assay [10] was over 100 µM each time.
On to `COc1cc(-c2nc3ccccc3s2)ccc1OCCCCOc1cc2c(cc1OC)C(=O)N1CCC[C@H]1C=N2`, for which the GI50 in assay [1] was 2.8 µM; in assay [2] it was 1.31 µM; in assay [3], 0.949 µM; in assay [4] it was 0.475 µM; in assay [6], 0.726 µM; in assay [7], 0.24 µM. Also, the GI50 is 1.4 µM in assay [8], 0.489 µM in assay [9] and 2.49 µM in assay [10]. The TGI amounted to 7.91 µM in assay [1]; 5.8 µM in assay [2]; 11.6 µM in assay [3]; 1.19 µM in [4]; 2.22 µM in assay [6]; 0.698 µM in [7]. In addition, the TGI in assay [8] is 2.84 µM; in [9] it was 1.63 µM; in assay [10], 5.78 µM.
`ClC(Cl)=C(Cl)C1(Cl)CC1COCc1ccccc1` (configuration not stated): the TGI is over 100 µM in [1]; over 100 µM in assay [2]; over 100 µM in [3]; 42.8 µM in assay [4]; over 100 µM in [5]; 54.8 µM in assay [6]. Also, the TGI in assay [7] is 59.6 µM; in [8], over 100 µM; in [10] it was 97.2 µM.
